This is an account of results in patent publication US20220401483A1, “COMBINATION OF A T CELL THERAPY AND (S)-3-[4-(4-MORPHOLIN-4-YLMETHYL-BENZYLOXY)-L-OXO-L,3-DIHYDRO-ISOINDOL-2-YL]-PIPERIDINE-2,6-DIONE” (Juno Therapeutics, Inc., priority 2019, published 2022).

What all share (type): cell-based, human
In one assay the test system is Aiolos. Put plainly: Intracellular Aiolos expression in stimulated anti-CD19 CAR-expressing T cells (flow cytometry MFI). As to the method:
(§1) T cell compositions containing anti-CD19 CAR-expressing T cells were generated from leukapheresis samples from three healthy human adult donors by a process including immunoaffinity-based selection of T cells (including CD4+ and CD8+ cells) from the samples, resulting in two compositions, enriched for CD8+ and CD4+ cells, respectively. The cells were incubated in the presence of (S)-3-[4-(4-morpholin-4-ylmethyl-benzyloxy)-1-oxo-1,3-dihydro-isoindol-2-yl]-piperidine-2,6-dione (Compound A) or 3-(5-amino-2-methyl-4-oxo-4H-quinazolin-3-yl)-piperidine-2,6-dione (Compound B), and expression of the transcription factors Ikaros and Aiolos was assessed. Cells of the enriched CD4+ and CD8+ compositions were separately activated with anti-CD3/anti-CD28 beads and subjected to lentiviral transduction with a vector encoding an anti-CD19 CAR. The anti-CD19 CAR contained an anti-CD19 scFv derived from a murine antibody (variable region derived from FMC63), an immunoglobulin-derived spacer, a transmembrane domain derived from CD28, a costimulatory region derived from 4-1BB, and a CD3-zeta intracellular signaling domain. The expression construct in the viral vector further contained sequences encoding a truncated receptor, which served as a surrogate marker for CAR expression, which was separated from the CAR sequence by a T2A ribosome skip sequence. Transduced populations then were separately incubated in the presence of stimulating reagents for cell expansion. Expanded CD8+ and CD4+ cells were formulated and cryopreserved separately and stored. The cryopreserved CD4+ and CD8+ anti-CD19 CAR-expressing cells from each donor were thawed, and combined at approximately a 1:1 CAR+CD4+:CD8+ ratio prior to use. Approximately 2.5×10^5 cells of the generated CAR+ T cell composition were stimulated overnight with 1 μg/ml of a CAR-specific anti-idiotypic antibody in the presence of 3-(5-amino-2-methyl-4-oxo-4H-quinazolin-3-yl)-piperidine-2,6-dione (Compound B) or (S)-3-[4-(4-morpholin-4-ylmethyl-benzyloxy)-1-oxo-1,3-dihydro-isoindol-2-yl]-piperidine-2,6-dione (Compound A) at concentrations ranging from 10 to 10000 nM or a vehicle control overnight at 37° C., 5% C02. Following overnight incubation, anti-CD19 CAR-expressing T cells were stained with antibodies and analyzed by flow cytometry to assess intracellular levels of Ikaros and Aiolos in CD4+ CAR+ or CD8+ CAR+ cells, as measured by median fluorescence intensity (MFI). Median fluorescence intensity (MFI) values for Ikaros and Aiolos were normalized and calculated as a percentage relative to vehicle control. […] The EC50 for reducing Aiolos and Ikaros expression was calculated as determined from the concentration of the inhibitor that reduced Aiolos or Ikaros MFI to 50% of its maximal MFI in the absence of the inhibitor.

For another assay, the system named is Ikaros. Put plainly: Intracellular Ikaros expression in stimulated anti-CD19 CAR-expressing T cells (flow cytometry MFI). As to the method:
as §1
(Flow cytometry measures light scatter and fluorescence of single cells or particles in a stream.)

The next assay relates to RL cells. Put plainly: Rescue of chronically stimulated CAR T cells cultured with RL cells. As to conditions: Compound B 1 μM, Compound A 0.001, 0.01 or 0.1 μM. How it is done: The RL cells were further used to assess the ability of immunomodulatory compounds to rescue or reverse the anti-CD19 CAR T cells from exhaustion. Anti-CD19 CAR-expressing T cells were stimulated under conditions to induce chronic stimulation and then were subsequently treated (rescue) with Compound B (1 μM) or Compound A (0.001 μM, 0.01 μM or 0.1 μM), or a vehicle control. Long-term, chronic stimulation was carried out by stimulation of CAR T cells with 30 μg/mL plate-bound anti-idiotypic (anti-ID) antibody for 6 days, substantially as described in Example 3. After the chronic stimulation, the CAR-T cells were cultured with RL cells in the presence of Compound B or Compound A. Cytolytic activity was assessed over time by measuring tumor cell number in the culture.

Assay [1] concerns Granta-519 tumor spheroids. Put plainly: Spheroid tumor growth assay, rescue treatment of chronically stimulated CAR T cells. As to the method: Anti-CD19 CAR-expressing T cells from three donors, produced as described in Example 1, were stimulated under conditions to induce chronic stimulation (to produce hypofunctional, exhausted T cells) and then were subsequently treated (rescue) with (S)-3-[4-(4-morpholin-4-ylmethyl-benzyloxy)-1-oxo-1,3-dihydro-isoindol-2-yl]-piperidine-2,6-dione (Compound A), or a vehicle control. Long-term, chronic stimulation was carried out by stimulation of CAR T cells with 30 μg/mL plate-bound anti-idiotypic (anti-ID) antibody for 6 days, substantially as described in Example 3 but in the absence of Compound A. After the chronic stimulation, the CAR-T cells were rechallenged with CD19-expressing target cells in the presence of Compound A, and cytolytic activity or cytokine production was assessed.
CAR T cells that had been stimulated for 6 days with anti-ID were co-cultured by incubation with Granta-519 tumor spheroids, in the presence or absence of Compound A (0.001 μM or 0.01 μM). Cells were assessed at various time points for cytolytic function and cytokine function. For comparison, cytolytic activity was also assessed for cells that had been similarly chronically stimulated with anti-ID, followed by co-culture in the presence of 1 μM or 0.1 μM Compound B. Averaged measurement of tumor spheroid size at Day 9 following co-culture with CAR-T cells was assessed. […] The improvement in cytolytic function was greater following rescue treatment with Compound A than Compound B. Cytokines (IFNγ, IL-2 and TNFalpha) were measured from supernatant of the chronically stimulated CAR T cells above that had been co-cultured for 5 days with CD19 tumor spheroids. The log 2 fold change compared to control cells (chronically stimulated cells that had not been treated with immunomodulatory compound) is shown in FIG. 4C.

In the next assay the test system is RL tumor spheroids. Put plainly: RL tumor spheroid model with anti-CD19 CAR T cells. As to conditions: Day 4; 1 μM Compound B, 0.01 μM or 0.1 μM Compound A. How it is done: Cytolytic activity was also assessed in a spheroid model. About 5,000 RL cells were plated 48 hours prior to addition of 5,000 anti-CD19 CAR T cells (1:1 E:T ratio). Anti-CD19 CAR T cells were co-cultured with RL tumor spheroids, in the presence of Compound B (1 μM) or Compound A (0.001 μM, 0.01 μM or 0.1 μM)).

The subject of a further assay is anti-CD19 CAR T cells. Put plainly: Intracellular cytokine staining of acutely stimulated anti-CD19 CAR T cells. Particulars: 3 days, 30 μg/mL agonistic anti-CAR antibody. How it is done: Effector and proliferative activity of anti-CD19 CAR T cells were assessed following incubation in the presence of absence of Compound A. Anti-CD19 CAR+ T cell compositions were generated as described in Example 1.
The anti-CD19 CAR T cells were stimulated with agonistic antibody against the CAR (30 μg/mL; WO2018/023100) while being treated with vehicle control (ctrl) or Compound A. Intracellular cytokines were measured using intracellular cytokine staining (ICS) after 3 days of treatment. FIG. 7A show a heatmap of cytokine expression as depicted based on log 2-fold change in mean fluorescence intensity (MFI) of cytokines relative to vehicle control in culture.

[2] abbreviates: overnight incubation, 1 μg/ml anti-idiotypic antibody, average of donors (range, 95% confidence interval).

Take `O=C1CC[C@H](N2Cc3c(OCc4ccc(CN5CCOCC5)cc4)cccc3C2=O)C(=O)N1` [Compound A, (S)-3-[4-(4-morpholin-4-ylmethyl-benzyloxy)-1-oxo-1,3-dihydro-isoindol-2-yl]-piperidine-2,6-dione]: the “intracellular Aiolos expression” value in the assay with Aiolos (10 to 10000 nM, overnight) is “concentration dependent decrease”. Moreover, the “potency relative to Compound B in degradation of Ikaros and Aiolos” value in the assay with Aiolos (CAR-expressing T cells) is 10-20 fold. The concentration giving a half-maximal response (EC50) with Aiolos (setting [2]) was found to be 2.5 nM; with Ikaros (setting [2]), 4 nM. Moreover, the “intracellular Ikaros expression” value in the assay with Ikaros (10 to 10000 nM, overnight) is recorded as “concentration dependent decrease”. Further, in the assay on RL cells, the “CAR T cell cytolytic activity, RL cell growth” value was “substantially improved”. Besides, the “CAR T cell cytolytic function, Granta-519 spheroid growth” value in assay [1] (0.001 μM or 0.01 μM, Day 9) is recorded as “improved”. Further, the “IFNγ in co-culture supernatant” value in assay [1] (5 days co-culture with spheroids) is on record as “statistically significant increase”. Moreover, the “improvement in cytolytic function compared with Compound B” value in assay [1] (Compound B 1 μM or 0.1 μM) is “greater”. Moreover, the “sensitivity of RL tumor spheroids to compound” value in the assay on RL tumor spheroids was “sensitive”. The “effector cytokine production (ICS, MFI vs vehicle)” value in the assay with anti-CD19 CAR T cells is on record as “potentiates”.

What is called EC50 is the concentration needed to bring the measured effect to its halfway point.
